Assay results reported in patent publication US10233186B2, “Inhibitors of activin receptor-like kinase” (BLUEPRINT MEDICINES CORPORATION, priority 2016, dated 2019).

Tests used:
[1] = biological target: T1, ALK2 R206H (GST-tagged mutant ALK2) (Homo sapiens, UniProt Q04771, R206H); experiment: ALK binding assay (LANTHASCREEN TR-FRET competitive binding, displacement of Kinase Tracer 178); settings: ALK2 R206H, LANTHASCREEN TR-FRET competitive binding; read-out: Binding Assay (IC50)
T1 construct: purchased Carna Bioscience or ThermoFisher 09-148 or PV6232
T1 sequence (Q04771 21-509 R206H): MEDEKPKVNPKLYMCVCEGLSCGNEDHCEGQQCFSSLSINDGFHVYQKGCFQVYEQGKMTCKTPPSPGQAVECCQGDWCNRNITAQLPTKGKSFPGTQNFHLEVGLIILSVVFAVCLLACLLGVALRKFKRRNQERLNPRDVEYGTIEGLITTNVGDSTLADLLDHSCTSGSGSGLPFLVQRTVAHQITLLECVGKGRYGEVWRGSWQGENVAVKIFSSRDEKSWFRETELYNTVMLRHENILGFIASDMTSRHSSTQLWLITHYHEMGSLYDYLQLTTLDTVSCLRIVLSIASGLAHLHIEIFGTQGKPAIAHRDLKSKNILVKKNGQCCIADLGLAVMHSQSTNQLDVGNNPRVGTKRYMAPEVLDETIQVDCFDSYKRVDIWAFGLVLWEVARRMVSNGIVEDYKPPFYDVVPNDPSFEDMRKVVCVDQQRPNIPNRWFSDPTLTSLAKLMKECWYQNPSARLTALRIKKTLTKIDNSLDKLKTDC

human ALK2 R206H = biological target: T2, human ALK2 R206H (Homo sapiens, UniProt Q04771, R206H); experiment: Cell-based ALK2-R206H cell activity assay (Smad1-Ser463/Ser465 phosphorylation by AlphaLISA in HEK293-ALK2-R206H cells); settings: read-out: Cell Line (Cell Assay IC50)
T2 construct: expressed in transfected cells; host or cells: HEK293 (ATCC CRL1573), lentivirus transduction, blasticidin selection
T2 sequence (Q04771 21-509 R206H): T1 sequence (Q04771 21-509 R206H)
Method in brief: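 Stable HEK293 cells expressing C-terminally FLAG-tagged human ALK2 R206H (lentiviral, blasticidin-selected) were treated with compounds in 10-point, 3-fold dilutions from 10 μM or 1 μM top, in duplicate. Smad1 Ser463/Ser465 phosphorylation was read by AlphaLISA.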

IC50 [1] [nM]	IC50 (human ALK2 R206H) [nM]	Compound
< 10	< 100	CCNC(=O)N1CCN(c2ccnn3cc(-c4ccc([C@@]5(OC)CCCN(C(C)C)C5)c(F)c4)cc23)CC1 [Compound 698]
< 10	100 to 500	N[C@H](CO)c1ccc(-c2cc3c(N4CCN(C(=O)C5CC5)CC4)ccnn3c2)cc1 [Compound 752]
< 10	< 100	COC1(c2ccc(-c3cc4c(N5CCN(C(=O)C6CC6)CC5)ccnn4c3)cc2)CCCN(C(C)C)C1 (stereo not shown) [Compound 388]
< 10	< 100	CC(C)N1CC[C@H](OC(F)F)[C@@H](c2ccc(-c3cc4c(N5CCN(C(=O)OC6COC6)CC5)ccnn4c3)cc2)C1 [Compound 888]
< 10	< 100	CC(C)NC(=O)N1CCN(c2ccnn3cc(-c4ccc([C@@]5(C)CCCN5C(C)C)cc4)cc23)CC1 [Compound 582]
10 to 50	> 500	CCN1CCN(c2ccc(-c3cc4c(N5CCN(C(=O)C6(c7cccc(Cl)c7)CC6)CC5)ccnn4c3)cc2)CC1 [Compound 447]
< 10	< 100	CCO[C@@]1(c2ccc(-c3cc4c(N5CCN(C(=O)NC(C)C)CC5)ccnn4c3)cc2)CCN(C(C)C)C1 [Compound 677]
< 10	< 100	N#CC1(c2ccc(-c3cc4c(N5CCN(C(=O)C6CC6)CC5)ccnn4c3)cc2)CCNCC1 [Compound 481]
< 10	< 100	CCO[C@@]1(c2ccc(-c3cc4c(N5CCN(C(=O)NC(C)C)CC5)ccnn4c3)nc2)CCCN(C(C)C)C1 [Compound 716]
< 10	< 100	CC(C)N1CCC(c2ccc(-c3cc4c(N5CCN(C(=O)[C@H]6C[C@](C)(O)C6)CC5)ccnn4c3)cc2)CC1 [Compound 420]
< 10	< 100	CC(C)NC(=O)N1CCN(c2ccnn3cc(-c4cnn([C@@H]5CCCN(C(C)C)C5)c4)cc23)CC1 [Compound 556]
< 10	< 100	CCOC1(c2ccc(-c3cc4c(N5CCN(C(=O)NC(C)C)CC5)ccnn4c3)nc2)CCN(C[C@H](C)F)CC1 [Compound 861]
< 10	< 100	COC1(c2ccc(-c3cc4c(N5CCN(C(=O)C6CC6)CC5)ccnn4c3)cc2)CCNCC1 [Compound 488]
< 10	100 to 500	CCN1CCN(c2c(F)cc(-c3cc4c(N5CCN(C(=O)C6CC6)CC5)ccnn4c3)cc2F)CC1 [Compound 360]
< 10	< 100	CO[C@]1(c2ccc(-c3cc4c(N5CCN(C(=O)C6CC6)CC5)ccnn4c3)nc2)CCCN(C(C)C)C1 [Compound 626]
< 10	< 100	CCNC(=O)N1CCN(c2ccnn3cc(-c4ccc([C@@]5(O)CCCN(C(C)C)C5)cn4)cc23)CC1 [Compound 606]
< 10	< 100	CCNC(=O)N1CCN(c2ccnn3cc(-c4ccc(C5CN(C(C)C)CCN5)cc4)cc23)CC1 (stereo not shown) [Compound 537]
< 10	< 100	CC(C)NC(=O)N1CCN(c2ccnn3cc(-c4ccc(C5(C)CCNCC5)cc4)cc23)CC1 [Compound 492]
< 10	< 100	CC(C)NC(=O)N1CCN(c2ccnn3cc(-c4ccc(C5COCCN5)cc4)cc23)CC1 (stereo not shown) [Compound 478]
< 10	< 100	O=C(OC1COC1)N1CCN(c2ccnn3cc(-c4ccc([C@H]5CCCN5)cn4)cc23)CC1 [Compound 477]
< 10	< 100	CCN1CCC(c2ccc(-c3cc4c(N5CCN(C(=O)C6CC(O)(C(F)(F)F)C6)CC5)ccnn4c3)cc2)CC1 (stereo not shown) [Compound 445]
< 10	< 100	CCC(C)N1CCC[C@@H](c2ccc(-c3cc4c(N5CCN(C(=O)C6CC6)CC5)ccnn4c3)cc2)C1 (stereo partly shown) [Compound 560]
< 10	< 100	CC1(c2ccc(-c3cc4c(N5CCN(C(=O)C6CC6)CC5)ccnn4c3)nc2)CCCN1 (stereo not shown) [Compound 463]
< 10	< 100	CC(C)N1CCC[C@H](c2ccc(-c3cc4c(N5CCN(C(=O)OC6COC6)CC5)ccnn4c3)nc2)C1 [Compound 636]
< 10	< 100	CC(C)N1CCC[C@@H](c2ccc(-c3cc4c(N5CCN(C(=O)OC6COC6)CC5)ccnn4c3)nc2)C1 [Compound 635]
< 10	< 100	CC(C)N1CC2(CN(c3ccc(-c4cc5c(N6CCN(C(=O)[C@H]7C[C@H](C#N)C7)CC6)ccnn5c4)cc3)C2)C1 [Compound 426]
< 10	< 100	CC(C)N1CCC(c2ccc(-c3cc4c(N5CCN(C(=O)[C@H]6C[C@@](C)(O)C6)CC5)ccnn4c3)cc2)CC1 [Compound 421]
< 10	< 100	CC(C)NC(=O)N1CCN(c2ccnn3cc(-c4ccc(C5CCN(C(C)C)CC5)cc4F)cc23)CC1 [Compound 649]
< 10	100 to 500	CC(C)NC(=O)N1CCN(c2ccnn3cc(-c4ccc(C5CCCN5)cn4)cc23)CC1 (stereo not shown) [Compound 465]
< 10	100 to 500	N[C@H](CO)c1ccc(-c2cc3c(N4CCN(C(=O)OC5COC5)CC4)ccnn3c2)cc1 [Compound 762]

Second part, the molecule before the results:

Compound	IC50 [1] [nM]	IC50 (human ALK2 R206H) [nM]
CCOC1(c2ccc(-c3cc4c(N5CCN(C(=O)NC(C)C)CC5)ccnn4c3)nc2)CCN(C2COC2)CC1 [Compound 858]	< 10	< 100
CCN1CCC(c2ccc(-c3cc4c(N5CCN(C(=O)C6CC6)CC5)ccnn4c3)cc2)CC1 [Compound 200]	< 10	< 100
CC(C)N1CCC[C@H]1c1ccc(-c2cc3c(N4CCN(C(=O)C5CC5)CC4)ccnn3c2)cc1 [Compound 210]	< 10	< 100
CCNC(=O)N1CCN(c2ccnn3cc(-c4ccc([C@H]5CCN(C(C)C)C5)cc4)cc23)CC1 [Compound 225]	< 10	< 100
CCN1CCN(c2ccc(-c3cc4c(N5CCN(C(=O)C6CC6)CC5)ccnn4c3)cn2)CC1 [Compound 221]	< 10	100 to 500
CC(C)N1CCc2cc(-c3cc4c(N5CCN(C(=O)C6CC6)CC5)ccnn4c3)sc2C1 [Compound 187]	< 10	< 100
CCN1CCC(Oc2ccc(-c3cc4c(N5CCN(C(=O)C6CC6)CC5)ccnn4c3)cc2)CC1 [Compound 268]	10 to 50	100 to 500
CCN1CCC(c2ccc(-c3cc4c(N5CCN(C(=O)CC6CC6)CC5)ccnn4c3)cc2)C1 (stereo not shown) [Compound 205]	10 to 50	100 to 500
COC1(c2ccc(-c3cc4c(N5CCN(C(=O)NC(C)C)CC5)ccnn4c3)c(F)c2)CCN(C(C)C)CC1 [Compound 721]	< 10	< 100
COC1(c2ccc(-c3cc4c(N5CCN(C(=O)[C@H]6C[C@H](C#N)C6)CC5)ccnn4c3)nc2)CCN([C@@H](C)CO)CC1 [Compound 741]	< 10	< 100
CC(C)N1CC[C@@H](c2ccc(-c3cc4c(N5CCN(C(=O)C6CC6)[C@H](C)C5)ccnn4c3)cc2)C1 [Compound 254]	< 10	< 100
COC1(c2ccc(-c3cc4c(N5CCN(C(=O)[C@H]6C[C@@H]6F)CC5)ccnn4c3)cc2)CCN(C(C)C)CC1 [Compound 681]	< 10	< 100
CC(C)N1CCC(COC(F)F)(c2ccc(-c3cc4c(N5CCN(C(=O)OC6COC6)CC5)ccnn4c3)cc2)CC1 [Compound 891]	< 10	< 100
CCOC(=O)N1CCN(c2ccnn3cc(-c4ccc(N5CCN(C(C)C)CC5)cc4)cc23)CC1 [Compound 295]	< 10	< 100
CC(C)N1CCC[C@@H]1c1ccc(-c2cc3c(N4CCN(C(=O)C5CC5)CC4)ccnn3c2)cc1 [Compound 211]	< 10	< 100
CCN1CC(O)(c2ccc(-c3cc4c(N5CCN(C(=O)C6CC6)CC5)ccnn4c3)cc2)C1 [Compound 161]	< 10	< 100
CCN1CC(c2ccc(-c3cc4c(N5CCN(C(=O)C6CC6)CC5)ccnn4c3)cc2)C1 [Compound 124]	< 10	< 100
CC(C)N1CCC(C)(c2ccc(-c3cc4c(N5CCN(C(=O)C6CC6)CC5)ccnn4c3)cc2)CC1 [Compound 565]	< 10	< 100
CC(C)N1CCC(C)(c2ccc(-c3cc4c(N5CCN(C(=O)OC6COC6)CC5)ccnn4c3)cc2)CC1 [Compound 668]	< 10	100 to 500
COC1(c2ccc(-c3cc4c(N5CCN(C(=O)NC(C)C)CC5)ccnn4c3)cc2)CCN(C(C)C)CC1 [Compound 829]	< 10	< 100
COC1(c2ccc(-c3cc4c(N5CCN(C(=O)OC6COC6)CC5)ccnn4c3)cc2)CCN(C(C)C)CC1 [Compound 713]	< 10	< 100
CC(=O)N1CCC(c2ccc(-c3cc4c(N5CCN(C(=O)C6CC6)CC5)ccnn4c3)cc2)CC1 [Compound 245]	10 to 50	100 to 500
CCN1CCN(c2ccc(-c3cc4c(N5CCN(C(=O)N6CC(O)C6)CC5)ccnn4c3)cc2)CC1 [Compound 344]	10 to 50	100 to 500
